Source: ChEMBL document CHEMBL1955803, “Preclinical in vivo evaluation of efficacy, pharmacokinetics, and pharmacodynamics of a novel MEK1/2 kinase inhibitor RO5068760 in multiple tumor models” (Mol Cancer Ther, 2010)

How the values were obtained:
[1] = tested on: MIA PaCa-2; test: Growth inhibition of human MIAPaCa2 cells expressing K-Ras […] mutant by MTT assay; format: functional, cell-based
[2] = Antitumor activity against human LOX cells expressing B-Raf V600E mutant xenografted in nude mouse assessed as tumor growth inhibition at 6.25 mg/kg, po bid; format: functional; conditions: read-out: GI
[3] = Antitumor activity against human LOX cells expressing B-Raf V600E mutant xenografted in nude mouse assessed as tumor growth inhibition at 200 mg/kg, po bid; format: functional; conditions: read-out: GI
[4] = tested on: Mus musculus; test: Toxicity in human HT-29 cells expressing B-Raf V600E mutant xenografted nude mouse assessed as gross signs of adverse effect at 25 to 100 mg/kg, po bid for 3 weeks; format: organism-based; parameters: dose 25-100 mg/kg, route oral; conditions: in vivo, 504 h
[5] = tested on: Mus musculus; test: Inhibition of MEK-mediated ERK phosphorylation in tumor of human LOX cells expressing B-Raf V600E mutant xenografted nude mouse at 100 mg/kg, po after 4 hrs by Western blot analysis relative to control; format: functional
[6] = tested on: Mus musculus; test: Inhibition of MEK-mediated ERK phosphorylation in tumor of human HT-29 cells expressing B-Raf V600E mutant xenografted nude mouse at 50 mg/kg, po after 12 hrs by Western blot analysis relative to control; format: functional; conditions: HT-29, 12 h
[7] = tested on: Mus musculus; test: Average drug concentration in human LOX cells expressing B-Raf V600E mutant xenografted nude mouse plasma at 6.25 mg/kg, po bid; format: ADME, organism-based; parameters: dose 6.25 mg/kg, route oral; conditions: in vivo
[8] = Cmax in human LOX cells expressing B-Raf V600E mutant xenografted nude mouse at 12.5 mg/kg, po bid; format: ADME, organism-based; parameters: dose 12.5 mg/kg, route oral; conditions: in vivo
[9] = tested on: Mus musculus; test: Average drug concentration in human HT-29 cells expressing B-Raf V600E mutant xenografted nude mouse plasma at 25 mg/kg, po bid; format: ADME, organism-based; parameters: dose 25 mg/kg, route oral; conditions: in vivo
[10] = AUC (0 to 12 hrs) in human HT-29 cells expressing B-Raf V600E mutant xenografted nude mouse at 100 mg/kg, po bid; format: ADME, organism-based; parameters: time < 12 hr, dose 100 mg/kg, route oral; conditions: in vivo
[11] = tested on: Mus musculus; test: Average drug concentration in human H460 cells expressing K-Ras Q61H mutant xenografted nude mouse plasma at 100 mg/kg, po bid; format: ADME, organism-based; parameters: dose 100 mg/kg, route oral; conditions: in vivo
[12] = Cmax in human H460 cells expressing K-Ras Q61H mutant xenografted nude mouse at 200 mg/kg, po qd; format: ADME, organism-based; parameters: dose 200 mg/kg, route oral; conditions: in vivo
[13] = tested on: Mus musculus; test: Average drug concentration in human H460 cells expressing K-Ras Q61H mutant xenografted nude mouse plasma at 200 mg/kg, po qd; format: ADME, organism-based; parameters: dose 200 mg/kg, route oral; conditions: in vivo
[14] = AUC (0 to 12 hrs) in human MIAPaCa2 cells expressing K-Ras G12C mutant xenografted nude mouse at 25 mg/kg, po bid; format: ADME, organism-based, MIA PaCa-2; parameters: time < 12 hr, dose 25 mg/kg, route oral; conditions: in vivo
[15] = AUC (0 to 12 hrs) in human MIAPaCa2 cells expressing K-Ras G12C mutant xenografted nude mouse at 100 mg/kg, po bid; format: ADME, organism-based, MIA PaCa-2; parameters: time < 12 hr, dose 100 mg/kg, route oral; conditions: in vivo
[16] = AUC (0 to 24 hrs) in human MIAPaCa2 cells expressing K-Ras G12C mutant xenografted nude mouse at 200 mg/kg, po qd; format: ADME, organism-based, MIA PaCa-2; parameters: time < 24 hr, dose 200 mg/kg, route oral; conditions: in vivo

IC50 [1]: 1250 nM
IC90 [1]: 5.11 µM
Cave [7]: 331 ng/mL
Cmax [8]: 1170 ng/mL
Cave [9]: 315 ng/mL
AUC at 12 h [10]: 18400 ng·h/mL
Cave [11]: 5242 ng/mL
Cmax [12]: 20700 ng/mL
Cave [13]: 5083 ng/mL
AUC at 12 h [14]: 12700 ng·h/mL
AUC at 12 h [15]: 32700 ng·h/mL
AUC at 24 h [16]: 66200 ng·h/mL
SMILES: C[C@@H](c1ccccc1)[C@@H](C(=O)Nc1ccc(I)cc1F)N1C(=O)N[C@H](c2ccc(OC[C@H](O)CO)cc2)C1=O
inhibition in vivo at 6.25 mg/kg [2]: 61%
inhibition in vivo at 200 mg/kg [3]: > 100%
Activity [4]: Non-toxic
inhibition in vivo at 100 mg/kg [5]: 83%
inhibition in vivo at 50 mg/kg [6]: 0%
